Laboratory results taken from US20240199604A1, “SUPRAMOLECULAR POLYMER THERAPEUTICS AND DIAGNOSTICS” (The Regents of the University of California, priority 2022, published 2024).

How the values were obtained:
[1] = biological target: T1, α-synuclein fibrils isolated from an MSA patient sample (Homo sapiens, UniProt P37840); assay: Cryo-EM co-structure with α-synuclein fibrils from MSA patient samples; format: binding; conditions: for co-structure of supramolecular polymeric inhibitor with α-synuclein fibrils: fibrils from MSA patient sample, cryoelectronic microscopy
T1 construct: fresh-frozen tissue from the cerebellum of patients clinically and neuropathologically diagnosed with MSA; from tissue; host or cells: cerebellum of MSA patients (sarkosyl-insoluble fraction)
Method: MSA filament purification. Filament purification was based on Schweigenhauser et al., 2020^2. Briefly, 1-2 g of fresh-frozen tissue from the cerebellum of patients clinically and neuropathologically diagnosed with MSA was homogenized at 20 mL/g of tissue in 10 mM Tris-HCl (pH 7.4), 800 mM NaCl, 1 mM EGTA, and 10% sucrose. A final concentration of 1% N-laurosarcosinate (w/v) was added to the homogenates, and these mixtures were incubated at 37° C. for 30 minutes. Homogenates were then centrifuged at 10,000 g for 10 minutes, and the supernatant was kept and then centrifuged at 100,000 g for 20 minutes. The pellets were resuspended at 500 μL/g of frozen tissue in 10 mM Tris-HCl (pH 7.4), 800 mM NaCl, 1 mM EGTA, and 10% sucrose. This was followed by another centrifugation at 3,000 g for 5 minutes. The supernatant was kept and diluted threefold with 50 mM Tris-HCl (pH 7.4), 150 mM NaCl, 10% sucrose, and 2% sarkosyl, followed by another centrifugation at 150,000 g for 1 hour. The final pellet resuspended in 30 mM Tris-HCl (pH 7.4) at a concentration of […] frozen tissue.
Cryo-EM sample preparation and data collection. Purified frontal cortex and cerebellum tissue was incubated with 20 μM ligand for 45 minutes prior to freezing. For the tau PHF, 3 μL of purified filaments mixed with GTP-1 was added to a glow-discharged 200 mesh 1.2/1.3R Au Quantifoil grid for 10 seconds before blotting for 2 seconds, and then a second 3 μL aliquot was added for 3 seconds and blotted for 1 second before being plunge frozen in liquid ethane using a FEI Vitrobot Mark IV (Thermo Fisher Scientific). For the synuclein ligands, 3 μL of purified filaments mixed with compound was added to a 200 mesh 1.2/1.3R Au Quantifoil grid coated with a 2 nm thick layer of carbon, which had not been glow discharged. After 30 seconds, grids were blotted for 7.5 seconds at room temperature and 100% humidity. Grids were plunge frozen in liquid ethane using a FEI Vitrobot Mark IV. […] A defocus range of 0.8 to 1.8 μm was used with a total exposure time of 2.024 seconds fractionated into 0.025 seconds subframes. The total dose for each movie was 46 electrons/Å^2. Movies were motion-corrected using MotionCor2^3 in Scipion^4 and were Fourier cropped by a factor of 2 to a final pixel size of 0.834 Å per pixel.
Image processing. All image processing was done in RELION 4^5, and the same workflow was used for each dataset. Dose-weighted summed micrographs were imported into RELION 4. The contrast transfer function was estimated using CTFFIND-4.1^6. Filaments were manually picked and then segments were extracted with a box size of 900 pixels downscaled to 300 pixels. Contaminants and segments contributing to straight filaments were separated out using reference-free 2D class averaging. The remaining segments were re-extracted with a box size of 288 pixels without downscaling. An initial model was generated from a cylinder in RELION. One or more rounds of 3D classification with image alignment were performed, with helical rise and […] parameters fixed to eliminate obvious junk particles. One or more rounds of 3D auto-refinement was run using the best map from 3D classification low-pass filtered to 10 Å, allowing rise and twist parameters to vary. Maps were sharpened using the standard post-processing procedures in RELION.
Model building, refinement, and analysis. Prior to ligand placement, a single strand of a previously solved MSA or tau PHF filament stutr^2 (PDB: 6XYQ) was refined against the density using Phenix^7. Refinement of the ligand binding pocket was done in COOT^8. Ligands were placed by hand in the density using Chimera^9. This model was then translated to give a stack spanning 5 rungs.

[2] = system: tau paired-helical filaments (PHFs); assay: Cryo-EM co-structure with Alzheimer's disease tau paired helical filaments; format: binding, human; conditions: AD tau PHF incubated with 20 uM GTP-1, cryo-EM
Method: Samples were incubated with 20 uM GTP-1 prior to vitrification. […] The micrograph images and their 2D classification reveal well-resolved filaments primarily in the PHF conformation, with crossover distances ranging from 700-800 Å. A minor population of straight filaments (SF) was also identified; however, further structural characterization was not feasible due to limited abundance. […] The PHF structure is comprised of two protofilaments related by two-fold symmetry with a 2.37 Å rise and 179.450 twist, consistent with previously reported structures of PHFs prepared from AD brains (13, 15). […]
Cryo-EM sample preparation and data collection. […] For the tau PHF, 3 μL of purified filaments mixed with GTP-1 was added to a glow-discharged 200 mesh 1.2/1.3R Au Quantifoil grid for 10 seconds before blotting for 2 seconds, and then a second 3 μL aliquot was added for 3 seconds and blotted for 1 second before being plunge frozen in liquid ethane using a FEI Vitrobot Mark IV (Thermo Fisher Scientific). For the synuclein ligands, 3 μL of purified filaments mixed with compound was added to a 200 mesh 1.2/1.3R Au Quantifoil grid coated with a 2 nm thick layer of carbon, which had not been glow discharged. […]

| binding site on α-synuclein fibril ([1]; α-synuclein fibril from an MSA patient, SEQ ID NO: 9) | Structure (SMILES) | co-structure of supramolecular polymeric inhibitor with α-synuclein fibrils [1] | binding site on tau filament [2] |
| --- | --- | --- | --- |
| – | CNc1nc(=O)n(-c2nc(-c3cc(C)cc(C)n3)oc2-c2ccc(F)c(F)c2)cc1F [compound 294] | bound to fibrils isolated from an MSA patient sample | – |
| – | O=C(Cn1cc(-c2ccoc2)c(=O)c2ccc(N3CCCC3)cc21)Nc1ccccc1C(F)(F)F [Compound 149, 2-[3-(furan-3-yl)-4-oxo-7-(pyrrolidin-1-yl)-1,4-dihydroquinolin-1-yl]-N-[2-(trifluoromethyl)phenyl]acetamide] | bound to fibrils isolated from an MSA patient sample | – |
| – | O=c1nc2c(ccn2C(F)(F)F)cn1-c1nc(-c2ccnc(C3CC3)n2)oc1-c1ccc(F)cc1 [compound 293] | bound to fibrils isolated from an MSA patient sample | – |
| – | [2H]C([2H])([18F])CC1CCN(c2ccn3c(n2)nc2ccccc23)CC1 [GTP-1] | – | bound to a solvent exposed cleft (residues 351-360) |
| bound to residues 86-99 | CNC(=O)c1ncc2c(-c3ccnc(C(C)(F)F)n3)nn(-c3ccc(Cl)cc3)c2n1 [Compound 22, 1-(4-chlorophenyl)-3-(2-(1,1-difluoroethyl)pyrimidin-4-yl)-N-methyl-1H-pyrazolo[3,4-d]pyrimidine-6-carboxamide] | bound to fibrils isolated from an MSA patient sample | – |
| – | CNc1nc(=O)n(-c2nc(-c3cccc(C)c3)oc2-c2ccc(Cl)c(F)c2)cc1F [Compound 83, 1-(5-(4-chloro-3-fluorophenyl)-2-(m-tolyl)oxazol-4-yl)-5-fluoro-4-(methylamino)pyrimidin-2 (1H)-one] | bound to fibrils isolated from an MSA patient sample | – |
| – | CNc1nc(=O)n(-c2nc(-c3cccc(Cl)c3)oc2-c2ccc(Cl)c(F)c2)cc1F [Compound 125, 1-(5-(4-chloro-3-fluorophenyl)-2-(3-chlorophenyl)oxazol-4-yl)-5-fluoro-4-(methylamino)pyrimidin-2 (1H)-one] | bound to fibrils isolated from an MSA patient sample | – |
